In US20260207704A1, “STAPLED PEPTIDES AND METHODS THEREOF” (priority 2022, published 2026) one finds IC50 data, which are given here for 13 compounds.

SMILES strings stand for the structures. Like-named read-outs stand apart in the source and are kept apart here. Bounds are passed on as bounds.

The assay relates to DLD1 reporter. As to the kind of experiment: reporter assay (DLD1 reporter assay). Format: cell-based. Conditions: read-out: DLD1 4% Abs IC50. From the text:
Various technologies can be utilized for characterizing and/or assessing provided technologies (e.g., agents (e.g., various peptides), compositions, methods, etc.) in accordance with the present disclosure. As described herein, in some embodiments, a useful technology is or comprises fluorescence polarization. In some embodiments, a useful technology assesses LogP or LogD. In some embodiments, a useful technology is or comprises a CHI LogD assay. In some embodiments, a useful technology assesses solubility. In some embodiments, a useful technology is or comprises NanoBRET. In some embodiments, a useful technology is or comprises a reporter assay (e.g., DLD1 reporter assay). In some embodiments, a useful technology is or comprises alphascreen. Certain useful protocols are described in the Examples. Those skilled in the art appreciate that suitable adjustments may be made to such protocols, e.g., according to specific conditions, agents, purposes, etc.
Various technologies can be utilized to assess technologies of the present disclosure. For example, in some embodiments, solubility, LogD, interactions with targets, etc. of various agents such as stapled peptides were assessed using technologies described in WO 2022/261257 (e.g., those in its Examples). In some embodiments, solubility, shake flask LogD, and binding to beta-catenin were assessed. In some embodiments, an assay for assessing interactions, e.g., with beta-catenin, was fluorescence polarization as described in WO 2022/261257. In some embodiments, an assay was Nano-BRET target engagement assay that assessed beta-catenin/TCF4 engagement as described in WO 2022/261257. In some embodiments, an assay was a reporter assay as reported in Example 4 of WO 2022/261257. In some embodiments, an assay was a COLO320DM proliferation assay as reported in Example 4 of WO 2022/261257.
In general terms: Reporter assays use an easily measured gene product as a stand-in for the process of interest.

In the case of `CC(=O)N1CCC[C@]12CC=CCCCC1(CCCC=CCCCOC(=O)N3CC[C@@]4(C3)NC(=O)[C@H](CCCCNC(=O)CC[C@@H](C(=O)N[C@@H](C)C(N)=O)NC(=O)[C@H](Cc3csc5ccccc35)NC(=O)[C@H](Cc3ccsc3)NC4=O)NC(=O)[C@H](Cc3ccccc3)NC(=O)[C@H](C)NC(=O)C(C)(C)NC(=O)[C@H](Cc3cccc(C(=O)O)c3)NC(=O)[C@H](CC(=O)O)NC1=O)NC(=O)[C@H](CC(C)(C)C)NC(=O)[C@H]([C@H](C)O)NC2=O` (relative stereo) [I-163, Ac-PL3-aThr-Npg-B5-Asp-3COOHF-Aib-Ala-Phe-Lys*3-PyrS2-3Thi-BztA-GlnR*3-Ala-NH2], the half-maximal inhibitory concentration (IC50) (DLD1 4%) is > 5000 nM.

As to `CC(=O)N1CCC[C@]12CC=CCCCC1(CCCC=CCCCOC(=O)N3CC[C@@]4(C3)NC(=O)[C@H](CCCCNC(=O)CC[C@@H](C(=O)N[C@@H](CC(C)C)C(=O)N[C@@H](CO)C(N)=O)NC(=O)[C@H](Cc3csc5ccccc35)NC(=O)[C@H](Cc3ccccc3C(F)(F)F)NC4=O)NC(=O)[C@H](Cc3ccccc3)NC(=O)[C@H](C)NC(=O)C3(CCCC3)NC(=O)[C@H](Cc3cccc(C(=O)O)c3)NC(=O)[C@H](CC(=O)O)NC1=O)NC(=O)[C@H](CC(C)(C)C)NC(=O)[C@H](CC(=O)O)NC2=O` (relative stereo) [I-141, Ac-PL3-Asp-Npg-B5-Asp-3COOHF-CyLeu-Ala-Phe-Lys*3-PyrS2-2F3MeF-BztA-GlnR*3-Leu-Ser-NH2], under “DLD1 4%”, the half-inhibitory concentration (IC50) was ≤ 1000 nM.

Turning to `CC(=O)N1CCC[C@]12CC=CCCCC1(CCCC=CCCCOC(=O)N3CC[C@@]4(C3)NC(=O)[C@H](CCCCNC(=O)CC[C@@H](C(=O)NC(C)(C)C(N)=O)NC(=O)[C@H](Cc3csc5ccccc35)NC(=O)[C@H](Cc3ccccc3C(F)(F)F)NC4=O)NC(=O)[C@H](Cc3ccccc3)NC(=O)[C@H](C)NC(=O)[C@H](C)NC(=O)[C@H](CN(CC(=O)O)CC(F)(F)F)NC(=O)[C@H](CC(=O)O)NC1=O)NC(=O)[C@H](CC(C)(C)C)NC(=O)[C@H](CC(=O)O)NC2=O` (single isomer, unassigned) [I-126, Ac-PL3-Asp-Npg-B5-Asp-TfeGA-Ala-Ala-Phe-Lys*3-PyrS2-2F3MeF-BztA-GlnR*3-Aib-NH2], for the setting “DLD1 4%”, the IC50 was in the range of 1000 to 5000 nM.

With `CC(=O)N1CCC[C@]12CC=CCCCC1(CCCC=CCCCOC(=O)N3CC[C@@]4(C3)NC(=O)[C@H](CCCCNC(=O)CC[C@@H](C(=O)N[C@@H](CCC(=O)O)C(=O)N[C@@H](C)C(N)=O)NC(=O)[C@H](Cc3csc5ccccc35)NC(=O)[C@H](Cc3ccsc3)NC4=O)NC(=O)[C@H](Cc3ccccc3)NC(=O)[C@H](C)NC(=O)C(C)(C)NC(=O)[C@H](Cc3cccc(C(=O)O)c3)NC(=O)[C@H](CC(=O)O)NC1=O)NC(=O)[C@H](CC(C)(C)C)NC(=O)[C@H](CC(=O)O)NC2=O` (relative stereo) [I-342, Ac-PL3-Asp-Npg-B5-Asp-3COOHF-Aib-Ala-Phe-Lys*3-PyrS2-3Thi-BztA-GlnR*3-Glu-Ala-NH2], the concentration for half-maximal inhibition (IC50) (DLD1 reporter, 4%) is ≤ 1000 nM.

As for `CC(=O)N1CCC[C@]12CC=CCCCC1(CCCC=CCCCOC(=O)N3CC[C@@]4(C3)NC(=O)[C@H](CCCCNC(=O)CC[C@@H](C(=O)N[C@@H](CC(C)C)C(N)=O)NC(=O)[C@H](Cc3csc5ccccc35)NC(=O)[C@H](Cc3ccccc3C(F)(F)F)NC4=O)NC(=O)[C@H](Cc3ccccc3)NC(=O)[C@H](C)NC(=O)[C@H](CC(C)(C)C)NC(=O)[C@H](Cc3cccc(C(=O)O)c3)NC(=O)[C@H](CC(=O)O)NC1=O)NC(=O)[C@H](CC(C)(C)C)NC(=O)[C@H](CC(=O)O)NC2=O` (single isomer, unassigned) [I-109, Ac-PL3-Asp-Npg-B5-Asp-3COOHF-Npg-Ala-Phe-Lys*3-PyrS2-2F3MeF-BztA-GlnR*3-Leu-NH2], where the note is “DLD1 4%”, the IC50 was 1000 to 5000 nM.

As for `CC(=O)N1CCC[C@]12CC=CCCCC1(CCCC=CCCCOC(=O)N3CC[C@@]4(C3)NC(=O)[C@H](CCCCNC(=O)CC[C@@H](C(=O)N[C@@H](C)C(N)=O)NC(=O)[C@H](Cc3csc5ccccc35)NC(=O)[C@H](Cc3ccccc3C(F)(F)F)NC4=O)NC(=O)[C@H](Cc3ccccc3)NC(=O)[C@H](C)NC(=O)C(C)(C)NC(=O)[C@H](Cc3cccc(C(=O)O)c3)NC(=O)[C@H](CCC(=O)O)NC1=O)NC(=O)[C@H](CC(C)(C)C)NC(=O)[C@H](CCC(=O)O)NC2=O` (relative stereo) [I-291, Ac-PL3-Glu-Npg-B5-Glu-3COOHF-Aib-Ala-Phe-Lys*3-PyrS2-2F3MeF-BztA-GlnR*3-Ala-NH2], the 50% inhibitory concentration (IC50) (DLD1 4%) lay within 1000 to 5000 nM.

For the compound `CC(=O)N1CCC[C@]12CC=CCCCC1(CCCC=CCCCOC(=O)N3CC[C@@]4(C3)NC(=O)[C@H](CCCCNC(=O)CC[C@@H](C(=O)N[C@H](C(N)=O)C(C)C)NC(=O)[C@H](Cc3csc5ccccc35)NC(=O)[C@H](Cc3ccccc3C(F)(F)F)NC4=O)NC(=O)[C@H](Cc3ccccc3)NC(=O)[C@H](C)NC(=O)[C@H](C)NC(=O)[C@H](CN(CC(=O)O)CC(F)(F)F)NC(=O)[C@H](CC(=O)O)NC1=O)NC(=O)[C@H](CC(C)(C)C)NC(=O)[C@H](CC(=O)O)NC2=O` (relative stereo) [I-129, Ac-PL3-Asp-Npg-B5-Asp-TfeGA-Ala-Ala-Phe-Lys*3-PyrS2-2F3MeF-BztA-GlnR*3-Val-NH2], the IC50 (DLD1 4%) was in the range of 1000 to 5000 nM.

As for `CC(=O)N1CCC[C@]12CC=CCCCC1(CCCC=CCCCOC(=O)N3CC[C@@]4(C3)NC(=O)[C@H](Cc3cn(nn3)CCCC[C@@H](C(=O)N[C@@H](C)C(N)=O)NC(=O)[C@H](Cc3csc5ccccc35)NC(=O)[C@H](Cc3ccsc3)NC4=O)NC(=O)[C@H](Cc3ccccc3)NC(=O)[C@H](C)NC(=O)[C@H](C)NC(=O)[C@H](Cc3cccc(C(=O)O)c3)NC(=O)[C@H](CC(=O)O)NC1=O)NC(=O)[C@H](CC(C)(C)C)NC(=O)[C@H](CC(=O)O)NC2=O` (stereo partly drawn) [I-338, Ac-PL3-Asp-Npg-B5-Asp-3COOHF-Ala-Ala-Phe-sAla*3-PyrS2-3Thi-BztA-TriAzLys*3-Ala-NH2], the half-inhibitory concentration (IC50) (DLD1 reporter, 4%) is ≤ 1000 nM.

Turning to `CC(=O)N1CCC[C@]12CC=CCCCC1(CCCC=CCCCOC(=O)N3CC[C@@]4(C3)NC(=O)[C@H](Cc3cn(nn3)CCCC[C@@H](C(N)=O)NC(=O)[C@H](Cc3csc5ccccc35)NC(=O)[C@H](Cc3ccsc3)NC4=O)NC(=O)[C@H](Cc3ccccc3)NC(=O)[C@H](C)NC(=O)[C@H](C)NC(=O)[C@H](Cc3cccc(C(=O)O)c3)NC(=O)[C@H](CC(=O)O)NC1=O)NC(=O)[C@H](CC(C)(C)C)NC(=O)[C@H](CC(=O)O)NC2=O` (stereo partly drawn) [I-24, Ac-PL3-Asp-Npg-B5-Asp-3COOHF-Ala-Ala-Phe-sAla*3-PyrS2-3Thi-BztA-TriAzLys*3-NH2], the 50% inhibitory concentration (IC50) (DLD1 4%) fell in the range of 1000 to 5000 nM.

For `CC(=O)N1CCC[C@]12CC=CCCCC1(CCCC=CCCCOC(=O)N3CC[C@@]4(C3)NC(=O)[C@H](CCCCN(C(C)C)C(=O)CCC[C@@H](C(=O)N[C@@H](C)C(N)=O)NC(=O)[C@H](Cc3csc5ccccc35)NC(=O)[C@H](Cc3ccsc3)NC4=O)NC(=O)[C@H](Cc3ccccc3)NC(=O)[C@H](C)NC(=O)[C@H](C)NC(=O)[C@H](Cc3cccc(C(=O)O)c3)NC(=O)[C@H](CC(=O)O)NC1=O)NC(=O)[C@H](CC(C)(C)C)NC(=O)[C@H](CC(=O)O)NC2=O` (relative stereo) [I-187, Ac-PL3-Asp-Npg-B5-Asp-3COOHF-Ala-Ala-Phe-iPrLys*3-PyrS2-3Thi-BztA-hGlnR*3-Ala-NH2], the IC50 (DLD1 4%) is > 5000 nM.

Consider `CC(=O)N1CCC[C@]12CC=CCCCC1(CCCC=CCCCOC(=O)N3CC[C@@]4(C3)NC(=O)[C@H](CCCCNC(=O)CCC[C@@H](C(=O)N[C@@H](C)C(N)=O)NC(=O)[C@H](Cc3csc5ccccc35)NC(=O)[C@H](Cc3ccsc3)NC4=O)NC(=O)[C@H](Cc3ccccc3)NC(=O)[C@H](C)NC(=O)[C@H](C)NC(=O)[C@H](Cc3cccc(C(=O)O)c3)NC(=O)[C@H](CC(=O)O)NC1=O)NC(=O)[C@H](CC(C)(C)C)NC(=O)[C@H](CC(=O)O)NC2=O` (relative stereo) [I-183, Ac-PL3-Asp-Npg-B5-Asp-3COOHF-Ala-Ala-Phe-Lys*3-PyrS2-3Thi-BztA-hGlnR*3-Ala-NH2], for which the IC50 (DLD1 4%) lay in the range of 1000 to 5000 nM.

For the compound `CC(=O)N1CCC[C@]12CC=CCCCC1(CCCC=CCCCOC(=O)N3CC[C@@]4(C3)NC(=O)[C@H](CCCCNC(=O)CC[C@@H](C(=O)N[C@@H](C)C(N)=O)NC(=O)[C@H](Cc3csc5ccccc35)NC(=O)[C@H](Cc3ccccc3C(F)(F)F)NC4=O)NC(=O)[C@H](Cc3ccccc3)NC(=O)[C@H](C)NC(=O)[C@H](C(C)C)NC(=O)[C@H](CN(CC(=O)O)CC(F)(F)F)NC(=O)[C@H](CC(=O)O)NC1=O)NC(=O)[C@H](CC(C)(C)C)NC(=O)[C@H](CC(=O)O)NC2=O` (single isomer, unassigned) [I-125, Ac-PL3-Asp-Npg-B5-Asp-TfeGA-Val-Ala-Phe-Lys*3-PyrS2-2F3MeF-BztA-GlnR*3-Ala-NH2], the half-maximal inhibitory concentration (IC50) (DLD1 4%) was 1000 to 5000 nM.

`CC(=O)N1CCC[C@]12CC=CCCCC1(CCCC=CCCCOC(=O)N3CC[C@@]4(C3)NC(=O)[C@H](CCCCNC(=O)CC[C@@H](C(=O)N[C@@H](CC(C)C)C(=O)N[C@@H](CO)C(N)=O)NC(=O)[C@H](Cc3csc5ccccc35)NC(=O)[C@H](Cc3ccccc3C(F)(F)F)NC4=O)NC(=O)[C@H](Cc3ccccc3)NC(=O)[C@H](C)NC(=O)C3(CC3)NC(=O)[C@H](Cc3cccc(C(=O)O)c3)NC(=O)[C@H](CC(=O)O)NC1=O)NC(=O)[C@H](CC(C)(C)C)NC(=O)[C@H](CC(=O)O)NC2=O` (relative stereo) [I-139, Ac-PL3-Asp-Npg-B5-Asp-3COOHF-Cpg-Ala-Phe-Lys*3-PyrS2-2F3MeF-BztA-GlnR*3-Leu-Ser-NH2]: the IC50 (DLD1 4%) is ≤ 1000 nM.

Usually IC50 stands for the concentration at which inhibition is half-maximal.
